{"source": "paper PMC5218480", "about": "(PLoS ONE, 2017)", "test_system": "MV-4-11 cells", "assay": "Gene expression microarray analysis (Affymetrix PrimeView) and GSEA", "type": "cell-based, human", "parameters": "RFU PODN (11730768_x_at) / Fold change /veh PODN (11730768_x_at) / RFU LINC00158 (11744669_a_at) / Fold change /veh LINC00158 (11744669_a_at) / RFU DUSP10 (11751237_a_at) / Fold change /veh DUSP10 (11751237_a_at) / RFU ID3 (11757404_x_at) / Fold change /veh ID3 (11757404_x_at) / RFU PLEKHG5 (11737974_s_at) / Fold change /veh PLEKHG5 (11737974_s_at) / RFU LRRC4B (11730491_at) / Fold change /veh LRRC4B (11730491_at) / RFU GIMAP4 (11747438_a_at) / Fold change /veh GIMAP4 (11747438_a_at) / RFU KRT8 (11758183_x_at) / Fold change /veh KRT8 (11758183_x_at) / RFU CNN1 (11734310_a_at) / Fold change /veh CNN1 (11734310_a_at) / RFU VPS37D (11726825_at) / Fold change /veh VPS37D (11726825_at) / RFU C10orf10 (11716522_x_at) / Fold change /veh C10orf10 (11716522_x_at) / RFU KIR2DL2 /// KIR2DL4 /// KIR2DL5A /// KIR2DL5B /// KIR2DS1 /// KIR2DS2 /// KIR2DS3 /// KIR2DS4 /// KIR3DL3 /// KIR3DL3 /// KIR3DS1 (11738374_at) / Fold change /veh KIR2DL2 /// KIR2DL4 /// KIR2DL5A /// KIR2DL5B /// KIR2DS1 /// KIR2DS2 /// KIR2DS3 /// KIR2DS4 /// KIR3DL3 /// KIR3DL3 /// KIR3DS1 (11738374_at) / RFU C1QL1 (11718748_at) / Fold change /veh C1QL1 (11718748_at) / RFU TMPRSS4 (11747572_a_at) / Fold change /veh TMPRSS4 (11747572_a_at) / RFU HAMP (11756126_x_at) / Fold change /veh HAMP (11756126_x_at) / RFU RNFT2 (11725882_a_at) / Fold change /veh RNFT2 (11725882_a_at) / RFU NR4A2 (11747474_a_at) / Fold change /veh NR4A2 (11747474_a_at) / RFU ABCC12 (11746883_a_at) / Fold change /veh ABCC12 (11746883_a_at) / RFU TMEM136 (11760407_x_at) / Fold change /veh TMEM136 (11760407_x_at) / RFU CLDN22 /// WWC2 (11732394_at) / Fold change /veh CLDN22 /// WWC2 (11732394_at) / RFU HLA-DPB1 (11760878_x_at) / Fold change /veh HLA-DPB1 (11760878_x_at) / RFU SPINT1 (11716480_a_at) / Fold change /veh SPINT1 (11716480_a_at) / RFU GAP43 (11754022_s_at) / Fold change /veh GAP43 (11754022_s_at) / RFU A4GNT (11735810_at) / Fold change /veh A4GNT (11735810_at) / RFU PRB3 (11715151_x_at) / Fold change /veh PRB3 (11715151_x_at) / RFU TUBB4B (11761932_at) / Fold change /veh TUBB4B (11761932_at) / RFU CAPN14 (11732068_a_at) / Fold change /veh CAPN14 (11732068_a_at) / RFU TMCC2 (11721928_a_at) / Fold change /veh TMCC2 (11721928_a_at) / RFU IRGQ (11745062_a_at) / Fold change /veh IRGQ (11745062_a_at) / RFU FAM174B (11720279_a_at) / Fold change /veh FAM174B (11720279_a_at) / RFU TMPRSS4 (11748680_a_at) / Fold change /veh TMPRSS4 (11748680_a_at) / RFU FAM212B (11763350_a_at) / Fold change /veh FAM212B (11763350_a_at) / RFU PLEKHG5 (11743358_a_at) / Fold change /veh PLEKHG5 (11743358_a_at) / RFU ZSCAN30 (11745921_a_at) / Fold change /veh ZSCAN30 (11745921_a_at) / RFU CMKLR1 (11741424_a_at) / Fold change /veh CMKLR1 (11741424_a_at) / RFU LOC101060620 /// MAPK8IP1 (11723275_at) / Fold change /veh LOC101060620 /// MAPK8IP1 (11723275_at) / RFU SPTSSB (11747773_x_at) / Fold change /veh SPTSSB (11747773_x_at) / RFU PRSS12 (11739890_at) / Fold change /veh PRSS12 (11739890_at) / RFU BIN1 (11741810_x_at) / Fold change /veh BIN1 (11741810_x_at) / RFU WNT11 (11732464_a_at) / Fold change /veh WNT11 (11732464_a_at) / RFU C10orf10 (11716521_a_at) / Fold change /veh C10orf10 (11716521_a_at) / RFU C5orf56 (11738089_at) / Fold change /veh C5orf56 (11738089_at) / RFU CYB561 (11721691_x_at) / Fold change /veh CYB561 (11721691_x_at) / RFU ANKRD19P (11752326_a_at) / Fold change /veh ANKRD19P (11752326_a_at) / RFU OR2T12 /// OR2T33 /// OR2T8 (11738714_s_at) / Fold change /veh OR2T12 /// OR2T33 /// OR2T8 (11738714_s_at) / RFU VCAN (11748164_a_at) / Fold change /veh VCAN (11748164_a_at) / RFU JSRP1 (11732532_at) / Fold change /veh JSRP1 (11732532_at) / RFU KRTAP10-11 (11738290_x_at) / Fold change /veh KRTAP10-11 (11738290_x_at) / RFU MYO3A (11730013_a_at) / Fold change /veh MYO3A (11730013_a_at) / RFU EBF3 (11725865_a_at) / Fold change /veh EBF3 (11725865_a_at) / RFU CAMK2N1 (11719241_x_at) / Fold change /veh CAMK2N1 (11719241_x_at) / RFU C5orf56 (11738088_a_at) / Fold change /veh C5orf56 (11738088_a_at) / RFU OLFML3 (11715873_a_at) / Fold change /veh OLFML3 (11715873_a_at) / RFU LOC100653217 /// NTM (11731650_a_at) / Fold change /veh LOC100653217 /// NTM (11731650_a_at) / RFU MAPK11 (11762145_a_at) / Fold change /veh MAPK11 (11762145_a_at) / RFU FIZ1 (11724087_x_at) / Fold change /veh FIZ1 (11724087_x_at) / RFU OASL (11726364_x_at) / Fold change /veh OASL (11726364_x_at) / RFU SOX15 (11748057_x_at) / Fold change /veh SOX15 (11748057_x_at) / RFU CD79A (11719716_a_at) / Fold change /veh CD79A (11719716_a_at) / RFU HIST1H1D (11736915_at) / Fold change /veh HIST1H1D (11736915_at) / RFU CASKIN2 (11723855_a_at) / Fold change /veh CASKIN2 (11723855_a_at) / RFU LOC730098 (11760151_x_at) / Fold change /veh LOC730098 (11760151_x_at) / RFU OR4N2 (11742367_at) / Fold change /veh OR4N2 (11742367_at) / RFU PRRT2 (11749266_a_at) / Fold change /veh PRRT2 (11749266_a_at) / RFU SNX32 (11753110_a_at) / Fold change /veh SNX32 (11753110_a_at) / RFU CDHR5 (11726645_a_at) / Fold change /veh CDHR5 (11726645_a_at) / RFU RCAN1 (11760418_a_at) / Fold change /veh RCAN1 (11760418_a_at) / RFU FAM167A (11723789_a_at) / Fold change /veh FAM167A (11723789_a_at) / RFU FAM26E (11764081_at) / Fold change /veh FAM26E (11764081_at) / RFU ISYNA1 (11749810_s_at) / Fold change /veh ISYNA1 (11749810_s_at) / RFU ACY1 (11761880_at) / Fold change /veh ACY1 (11761880_at) / RFU 11764098_at / Fold change /veh 11764098_at / RFU SAMD14 (11745864_x_at) / Fold change /veh SAMD14 (11745864_x_at) / RFU NPB (11741838_a_at) / Fold change /veh NPB (11741838_a_at) / RFU TMPRSS6 (11731388_a_at) / Fold change /veh TMPRSS6 (11731388_a_at) / RFU KRTAP10-2 (11738614_at) / Fold change /veh KRTAP10-2 (11738614_at) / RFU ARHGAP8 /// PRR5-ARHGAP8 (11727945_x_at) / Fold change /veh ARHGAP8 /// PRR5-ARHGAP8 (11727945_x_at) / RFU KRTAP5-7 /// NADSYN1 (11734609_at) / Fold change /veh KRTAP5-7 /// NADSYN1 (11734609_at) / RFU RASL12 (11751679_a_at) / Fold change /veh RASL12 (11751679_a_at) / RFU CDKN2B (11736163_a_at) / Fold change /veh CDKN2B (11736163_a_at) / RFU PRF1 (11729649_at) / Fold change /veh PRF1 (11729649_at) / RFU, ZNF638 /// ZNF638-IT1 / Fold change vs veh, ZNF638 /// ZNF638-IT1 / RFU, PANK3 / Fold change vs veh, PANK3 / RFU, SH3YL1 / Fold change vs veh, SH3YL1 / RFU, ZEB2 / Fold change vs veh, ZEB2 / RFU, NRIP1 / Fold change vs veh, NRIP1 / RFU, PTTG1IP / Fold change vs veh, PTTG1IP / RFU, CAPN2 / Fold change vs veh, CAPN2 / RFU, MED14 / Fold change vs veh, MED14 / RFU, SNORA58 / Fold change vs veh, SNORA58 / RFU, C1orf63 / Fold change vs veh, C1orf63 / RFU, LRRFIP1 / Fold change vs veh, LRRFIP1 / RFU, NDUFAF7 / Fold change vs veh, NDUFAF7 / RFU, SLC12A2 / Fold change vs veh, SLC12A2 / RFU, IBTK / Fold change vs veh, IBTK / RFU, ESF1 / Fold change vs veh, ESF1 / Fold change vs veh, TMEM50B / RFU, TAOK1 / Fold change vs veh, TAOK1 / RFU, ACBD3 / Fold change vs veh, ACBD3 / RFU, TMA16 / Fold change vs veh, TMA16 / RFU, RWDD3 / Fold change vs veh, RWDD3 / RFU, BCAT1 / Fold change vs veh, BCAT1 / RFU, EDEM3 / Fold change vs veh, EDEM3 / RFU, TMEM33 / Fold change vs veh, TMEM33 / RFU, WDR75 / Fold change vs veh, WDR75 / RFU, AHCTF1 / Fold change vs veh, AHCTF1 / RFU, TFRC / Fold change vs veh, TFRC / RFU, ZDHHC17 / Fold change vs veh, ZDHHC17 / RFU, NOM1 / Fold change vs veh, NOM1 / RFU, ARL8B / Fold change vs veh, ARL8B / RFU, ZBTB11 / Fold change vs veh, ZBTB11 / RFU, TAMM41 / Fold change vs veh, TAMM41 / RFU, KIAA1704 /// LOC100996395 / Fold change vs veh, KIAA1704 /// LOC100996395 / RFU, ING1 / Fold change vs veh, ING1 / RFU, TRMT61B / Fold change vs veh, TRMT61B / RFU, FUBP3 / Fold change vs veh, FUBP3 / RFU, TP53 / Fold change vs veh, TP53 / RFU, TNKS2 / Fold change vs veh, TNKS2 / RFU, ZFP14 / Fold change vs veh, ZFP14 / RFU, ACTR2 / Fold change vs veh, ACTR2 / RFU, PPP3R1 / Fold change vs veh, PPP3R1 / RFU, PIK3R1 / Fold change vs veh, PIK3R1 / RFU, HNRNPA1 / Fold change vs veh, HNRNPA1 / RFU, RNF170 / Fold change vs veh, RNF170 / RFU, ZNF28 / Fold change vs veh, ZNF28 / RFU, RNGTT / Fold change vs veh, RNGTT / RFU, OGT / Fold change vs veh, OGT / RFU, BRD1 / Fold change vs veh, BRD1 / RFU, MARS / Fold change vs veh, MARS / RFU, ZNF655 / Fold change vs veh, ZNF655 / RFU, FAHD1 / Fold change vs veh, FAHD1 / RFU, BDP1 / Fold change vs veh, BDP1 / RFU, LRRCC1 / Fold change vs veh, LRRCC1 / RFU, ARID1A / Fold change vs veh, ARID1A / RFU, ZNF146 / Fold change vs veh, ZNF146 / RFU, ZNF330 / Fold change vs veh, ZNF330 / RFU, GPN3 / Fold change vs veh, GPN3 / RFU, C9orf123 / Fold change vs veh, C9orf123 / RFU, N4BP2L2 / Fold change vs veh, N4BP2L2 / RFU, ARFIP1 / Fold change vs veh, ARFIP1 / RFU, FAM179B / Fold change vs veh, FAM179B / RFU, BCL10 / Fold change vs veh, BCL10 / RFU, UHRF1BP1L / Fold change vs veh, UHRF1BP1L / RFU, BET1 / Fold change vs veh, BET1 / RFU, CNOT2 / Fold change vs veh, CNOT2 / RFU, ZNF268 / Fold change vs veh, ZNF268 / Fold change vs veh, ZNF507 / RFU, DGCR2 / Fold change vs veh, DGCR2 / RFU, WDSUB1 / Fold change vs veh, WDSUB1 / Fold change vs veh, HSP90B1 /// MIR3652 / RFU, ADSS / Fold change vs veh, ADSS / RFU, GK / Fold change vs veh, GK / RFU, ZNF148 / Fold change vs veh, ZNF148 / RFU, TAF9 / Fold change vs veh, TAF9 / RFU, SLC1A5 / Fold change vs veh, SLC1A5 / RFU, SLMO2 / Fold change vs veh, SLMO2 / RFU, ABCC4 / Fold change vs veh, ABCC4 / RFU, LOC101060439 /// RAP1B / Fold change vs veh, LOC101060439 /// RAP1B / RFU, RFX7 / Fold change vs veh, RFX7 / RFU, GTPBP10 / Fold change vs veh, GTPBP10 / RFU, CNEP1R1 / Fold change vs veh, CNEP1R1 / RFU, BIVM-ERCC5 /// ERCC5 / Fold change vs veh, BIVM-ERCC5 /// ERCC5 / RFU, ILF3 / Fold change vs veh, ILF3 / RFU 11762660_at / Fold change /veh 11762660_at / RFU VCAN (11757783_s_at) / Fold change /veh VCAN (11757783_s_at) / RFU DDX43 (11728927_at) / Fold change /veh DDX43 (11728927_at) / RFU KRT8 (11758188_x_at) / Fold change /veh KRT8 (11758188_x_at) / RFU NKD1 (11759106_at) / Fold change /veh NKD1 (11759106_at) / RFU SRD5A1 (11742802_a_at) / Fold change /veh SRD5A1 (11742802_a_at) / RFU TPSAB1 /// TPSB2 (11721975_s_at) / Fold change /veh TPSAB1 /// TPSB2 (11721975_s_at) / RFU GSTM3 (11746129_a_at) / Fold change /veh GSTM3 (11746129_a_at) / RFU IL23R (11737362_x_at) / Fold change /veh IL23R (11737362_x_at) / RFU TMEM51 (11727254_a_at) / Fold change /veh TMEM51 (11727254_a_at) / RFU PIWIL2 (11732686_x_at) / Fold change /veh PIWIL2 (11732686_x_at) / RFU ORM1 (11744905_x_at) / Fold change /veh ORM1 (11744905_x_at) / RFU CCDC152 (11743942_at) / Fold change /veh CCDC152 (11743942_at) / RFU ECM1 (11717891_a_at) / Fold change /veh ECM1 (11717891_a_at) / RFU IL23R (11748794_a_at) / Fold change /veh IL23R (11748794_a_at) / RFU TNFAIP8L3 (11732012_x_at) / Fold change /veh TNFAIP8L3 (11732012_x_at) / RFU MBOAT4 (11741988_at) / Fold change /veh MBOAT4 (11741988_at) / RFU 11764193_at / Fold change /veh 11764193_at / RFU TMEM53 (11763286_at) / Fold change /veh TMEM53 (11763286_at) / RFU MAGEB2 (11727129_at) / Fold change /veh MAGEB2 (11727129_at) / RFU TMEM200A (11744735_a_at) / Fold change /veh TMEM200A (11744735_a_at) / RFU CCDC152 (11751479_a_at) / Fold change /veh CCDC152 (11751479_a_at) / RFU FAM211A (11726209_a_at) / Fold change /veh FAM211A (11726209_a_at) / RFU RGS16 (11746705_a_at) / Fold change /veh RGS16 (11746705_a_at) / RFU VCAN (11755009_s_at) / Fold change /veh VCAN (11755009_s_at) / RFU RHOB (11743442_s_at) / Fold change /veh RHOB (11743442_s_at) / RFU RGS16 (11720943_a_at) / Fold change /veh RGS16 (11720943_a_at) / RFU RGS16 (11720944_at) / Fold change /veh RGS16 (11720944_at) / RFU, VPS4B / Fold change vs veh, VPS4B / RFU, CREB1 / Fold change vs veh, CREB1 / RFU, DNAJC13 / Fold change vs veh, DNAJC13 / RFU, GNAQ / Fold change vs veh, GNAQ / RFU, CDK5R1 / Fold change vs veh, CDK5R1 / RFU, ZRANB3 / Fold change vs veh, ZRANB3 / RFU, CUL4A / Fold change vs veh, CUL4A / RFU, CCNY / Fold change vs veh, CCNY / RFU, UFL1 / Fold change vs veh, UFL1 / RFU, COG3 / Fold change vs veh, COG3 / RFU, DIAPH2 / Fold change vs veh, DIAPH2 / RFU, SKA2 / Fold change vs veh, SKA2 / RFU, AFF3 / Fold change vs veh, AFF3 / RFU, LMF1 / Fold change vs veh, LMF1 / RFU, IPO11 / Fold change vs veh, IPO11 / RFU, DFFB / Fold change vs veh, DFFB / RFU, FOXP1 / Fold change vs veh, FOXP1 / RFU, CARD8 / Fold change vs veh, CARD8 / RFU, STRN3 / Fold change vs veh, STRN3 / RFU, ADK / Fold change vs veh, ADK / RFU, RASSF2 / Fold change vs veh, RASSF2 / RFU, WIPF1 / Fold change vs veh, WIPF1 / RFU, LARP1B / Fold change vs veh, LARP1B / RFU, RASA1 / Fold change vs veh, RASA1 / RFU, RB1 / Fold change vs veh, RB1 / RFU, PPFIA1 / Fold change vs veh, PPFIA1 / RFU, MAT2A / Fold change vs veh, MAT2A / RFU, CCT5 / Fold change vs veh, CCT5 / RFU, WDR92 / Fold change vs veh, WDR92 / RFU, CUX1 / Fold change vs veh, CUX1 / RFU, TTC7A / Fold change vs veh, TTC7A / RFU, TMEM135 / Fold change vs veh, TMEM135 / RFU, DEPTOR / Fold change vs veh, DEPTOR / RFU, CPM / Fold change vs veh, CPM / RFU, DNAJB6 / Fold change vs veh, DNAJB6 / RFU, CACNA2D3 / Fold change vs veh, CACNA2D3 / RFU, DTX4 / Fold change vs veh, DTX4 / RFU, TFCP2 / Fold change vs veh, TFCP2 / RFU, GMCL1 /// GMCL1P1 / Fold change vs veh, GMCL1 /// GMCL1P1 / RFU, AEBP2 / Fold change vs veh, AEBP2 / RFU, SNHG1 /// SNORD22 /// SNORD25 /// SNORD26 /// SNORD27 /// SNORD28 /// SNORD29 /// SNORD31 / Fold change vs veh, SNHG1 /// SNORD22 /// SNORD25 /// SNORD26 /// SNORD27 /// SNORD28 /// SNORD29 /// SNORD31 / Fold change (Aza/veh), C12orf56 (ProbeSet 11735607_a_at) / Fold change (ACY-1035/veh), C12orf56 (ProbeSet 11735607_a_at) / Fold change (Aza/veh), FGFR1OP (ProbeSet 11751329_s_at) / Fold change (ACY-1035/veh), FGFR1OP (ProbeSet 11751329_s_at) / Fold change (Aza/veh), VPS36 (ProbeSet 11739960_a_at) / Fold change (ACY-1035/veh), VPS36 (ProbeSet 11739960_a_at) / RFU SYPL1 (11715823_x_at) / Fold change /veh SYPL1 (11715823_x_at) / RFU IGFBP7 (11715501_s_at) / Fold change /veh IGFBP7 (11715501_s_at) / RFU REEP3 (11722064_at) / Fold change /veh REEP3 (11722064_at) / RFU IGLL1 (11728026_x_at) / Fold change /veh IGLL1 (11728026_x_at): dose or concentration left out as unconfirmed", "conditions": "ProbeSet 11727641_at; LIST B", "data": [{"smiles": "Nc1ccc(-c2cccs2)cc1NC(=O)c1ccc2c(c1)cc(C1CC1)n2CCN1CCOCC1", "note": "[ACY-1035]", "values": [{"measurement": "RFU, NOM1", "value": 160.01, "unit": "RFU"}]}]}
